Measured values taken from ChEMBL document CHEMBL1154743, “A novel potent nicotinamide phosphoribosyltransferase inhibitor synthesized via click chemistry” (J Med Chem, 2010).

How the values were obtained:
Type in all cases: functional
[1] = Growth inhibition of human […] cells by sulforhodamine B assay; conditions: read-out: LC50 (the source's name)
PC-3 = assay: Growth inhibition of human PC3 cells by sulforhodamine B assay
NCI-H23 = assay: Growth inhibition of human NCI-H23 cells by sulforhodamine B assay
SK-MEL-2 = assay: Growth inhibition of human SK-MEL-2 cells by sulforhodamine B assay
SK-OV-3 = assay: Growth inhibition of human SKOV3 cells by sulforhodamine B assay
SF-268 = assay: Growth inhibition of human SF268 cells by sulforhodamine B assay
SF-539 = assay: Growth inhibition of human SF539 cells by sulforhodamine B assay
[2] = Growth inhibition of human Hs 578T cells by sulforhodamine B assay
MCF7 = assay: Growth inhibition of human MCF7 cells by sulforhodamine B assay
HCT-116 = assay: Growth inhibition of human HCT116 cells by sulforhodamine B assay
SK-MEL-28 = assay: Growth inhibition of human SK-MEL-28 cells by sulforhodamine B assay
DU-145 = assay: Growth inhibition of human DU145 cells by sulforhodamine B assay
SH-SY5Y = assay: Cytotoxicity against human SH-SY5Y cells assessed as reduction of total cellular NAD(P) level at 1 uM relative to control; design: scale not given: the % may be the effect or the level left
SW-620 = assay: Growth inhibition of human SW620 cells by sulforhodamine B assay
UO-31 = assay: Growth inhibition of human UO31 cells by sulforhodamine B assay
NCI-H322M = assay: Growth inhibition of human NCI-H322M cells by sulforhodamine B assay
U-251 = assay: Growth inhibition of human U251 cells by sulforhodamine B assay
SNB-75 = assay: Growth inhibition of human SNB75 cells by sulforhodamine B assay
UACC-62 = assay: Growth inhibition of human UACC62 cells by sulforhodamine B assay
[3] = read-out: LC50 (the source's name)

O=C(CCCCCCCn1cc(-c2cccnc2)nn1)Nc1ccccc1-c1ccccc1
CC50 [1]: > 100 µM | GI50 (PC-3): 0.467 µM | TGI (PC-3): 42.8 µM | CC50 (PC-3; [3]): > 100 µM | GI50 (NCI-H23): 15.1 µM | TGI (NCI-H23): > 100 µM | CC50 (NCI-H23; [3]): > 100 µM | GI50 (SK-MEL-2): 12.8 µM | TGI (SK-MEL-2): 46.2 µM | CC50 (SK-MEL-2; [3]): 57 µM | GI50 (SK-OV-3): 20.5 µM | TGI (SK-OV-3): > 100 µM | CC50 (SK-OV-3; [3]): > 100 µM | GI50 (SF-268): 24.7 µM | TGI (SF-268): > 100 µM | CC50 (SF-268; [3]): > 100 µM | GI50 (SF-539): 0.0618 µM | TGI (SF-539): > 100 µM | CC50 (SF-539; [3]): > 100 µM | GI50 [2]: 20.4 µM | TGI [2]: > 100 µM | CC50 [2, 3]: > 100 µM | GI50 (MCF7): 3.42 µM | TGI (MCF7): 50.1 µM | CC50 (MCF7; [3]): > 100 µM | GI50 (HCT-116): 0.0403 µM | TGI (HCT-116): > 100 µM | CC50 (HCT-116; [3]): > 100 µM | GI50 (SK-MEL-28): 1.59 µM | TGI (SK-MEL-28): > 100 µM | CC50 (SK-MEL-28; [3]): > 100 µM | GI50 (DU-145): 0.702 µM | TGI (DU-145): > 100 µM | CC50 (DU-145; [3]): > 100 µM | Activity (SH-SY5Y): 11.6% | GI50 (SW-620): 0.0615 µM | TGI (SW-620): > 100 µM | CC50 (SW-620; [3]): > 100 µM | GI50 (UO-31): 16.9 µM | TGI (UO-31): 93 µM | CC50 (UO-31; [3]): > 100 µM | GI50 (NCI-H322M): 23.1 µM | TGI (NCI-H322M): > 100 µM | CC50 (NCI-H322M; [3]): > 100 µM | GI50 (U-251): 0.521 µM | TGI (U-251): > 100 µM | CC50 (U-251; [3]): > 100 µM | GI50 (SNB-75): 29.8 µM | TGI (SNB-75): > 100 µM | CC50 (SNB-75; [3]): > 100 µM | GI50 (UACC-62): 13.3 µM | TGI (UACC-62): 51.4 µM | CC50 (UACC-62; [3]): > 100 µM
